Results on 31 compounds are retold here after US20230399341A1, “7-PHENYL SUBSTITUTED 2-AMINOQUINAZOLINE INHIBITORS OF HPK1” (MERCK SHARP & DOHME LLC, priority 2020, published 2023).

The target of this test is T1, Human HPK1, catalytic domain (Homo sapiens, UniProt Q92918).
T1 sequence (Q92918 1-346): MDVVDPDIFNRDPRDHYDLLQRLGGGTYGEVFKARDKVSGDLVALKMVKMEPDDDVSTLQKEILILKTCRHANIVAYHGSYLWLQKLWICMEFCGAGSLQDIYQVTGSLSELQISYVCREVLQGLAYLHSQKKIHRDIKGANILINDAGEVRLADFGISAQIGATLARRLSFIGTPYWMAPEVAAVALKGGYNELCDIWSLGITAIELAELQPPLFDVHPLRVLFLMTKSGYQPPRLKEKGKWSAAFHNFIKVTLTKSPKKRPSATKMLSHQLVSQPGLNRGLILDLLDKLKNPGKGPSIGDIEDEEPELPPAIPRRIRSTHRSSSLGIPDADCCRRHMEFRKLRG
Description: HPK1-SLP76 TR-FRET Assay. The format is biochemical. The note with it: 75 pM HPK1, ATP 10 uM, SLP76 10 nM, 30 min pre-incubation, 60 min reaction.
In turn, `COc1cc2c(cc1Nc1ncc3c(N)c(F)c(-c4cnc5c(c4C)NCCO5)cc3n1)CN(C)CC2` [Compound 2-2, 6-fluoro-N~2~-(6-methoxy-2-methyl-1,2,3,4-tetrahydroisoquinolin-7-yl)-7-(8-methyl-2,3-dihydro-1H-pyrido[2,3-b][1,4]oxazin-7-yl)quinazoline-2,5-diamine] showed an IC50 of 0.0915 nM.

With `COC(=O)Cc1ccc(OC)c(Nc2ncc3c(N)c(F)c(-c4cnc5c(c4C)NCCO5)cc3n2)c1` [Compound 2-3, methyl (3-{[5-amino-6-fluoro-7-(8-methyl-2,3-dihydro-1H-pyrido[2,3-b][1,4]oxazin-7-yl)quinazolin-2-yl]amino}-4-methoxyphenyl)acetate], the concentration for half-maximal inhibition (IC50) was determined as 323 nM. This IC50 is about 3500-fold higher than that of the compound before. The compound `COc1cc2c(cc1Nc1ncc3c(N)c(F)c(-c4cnc5c(c4C)NCCO5)cc3n1)CNCC2` [Compound 2-4, 6-fluoro-N~2~-(6-methoxy-1,2,3,4-tetrahydroisoquinolin-7-yl)-7-(8-methyl-2,3-dihydro-1H-pyrido[2,3-b][1,4]oxazin-7-yl)quinazoline-2,5-diamine] came in with an IC50 of 0.979 nM. With `COc1ccc(CC#N)cc1Nc1ncc2c(N)c(F)c(-c3cnc4c(c3C)NCCO4)cc2n1` [Compound 2-5, (3-{[5-amino-6-fluoro-7-(8-methyl-2,3-dihydro-1H-pyrido[2,3-b][1,4]oxazin-7-yl)quinazolin-2-yl]amino}-4-methoxyphenyl)acetonitrile], the IC50 turned out to be 270 nM. `COc1cc(S(N)(=O)=O)ccc1Nc1ncc2c(N)c(F)c(-c3cnc4c(c3C)NCCO4)cc2n1` [Compound 2-6, 4-{[5-amino-6-fluoro-7-(8-methyl-2,3-dihydro-1H-pyrido[2,3-b][1,4]oxazin-7-yl)quinazolin-2-yl]amino}-3-methoxybenzene-1-sulfonamide] came in with an IC50 of 48.1 nM. The value for `CC(=O)N1CCCc2cc(Nc3ncc4c(N)c(F)c(-c5cnc6c(c5C)NCCO6)cc4n3)ccc21` [Compound 2-7, 1-[6-{[5-amino-6-fluoro-7-(8-methyl-2,3-dihydro-1H-pyrido[2,3-b][1,4]oxazin-7-yl)quinazolin-2-yl]amino}-3,4-dihydroquinolin-1(2H)-yl]ethan-1-one] was 0.112 nM. The value for `Cc1c(-c2cc3nc(Nc4ccccc4OC(F)(F)F)ncc3c(N)c2F)cnc2c1NCCO2` [Compound 2-8, 6-fluoro-7-(8-methyl-2,3-dihydro-1H-pyrido[2,3-b][1,4]oxazin-7-yl)-N~2~- [2-(trifluoromethoxy)phenyl] quinazoline-2,5-diamine] was 116 nM; that for `Cc1c(-c2cc3nc(Nc4cccnc4)ncc3c(N)c2F)cnc2c1NCCO2` [Compound 2-9, 6-fluoro-7-(8-methyl-2,3-dihydro-1H-pyrido[2,3-b][1,4]oxazin-7-yl)-N~2~- (pyridin-3-yl)quinazoline-2,5-diamine] was 0.129 nM. The value for `COc1cc2c(cc1Nc1ncc3c(N)c(F)c(-c4cnc5c(c4C)NCCO5)cc3n1)CN(C(C)=O)CC2` [Compound 2-12, 1-[7-{[5-amino-6-fluoro-7-(8-methyl-2,3-dihydro-1H-pyrido[2,3-b][1,4]oxazin-7-yl)quinazolin-2-yl]amino}-6-methoxy-3,4-dihydroisoquinolin-2(1H)-yl]ethan-1-one] was 685 nM; that for `CNC(=O)Cc1ccc(Nc2ncc3c(N)c(F)c(-c4cnc5c(c4C)NCCO5)cc3n2)cc1` [Compound 2-13] was 0.0496 nM; that for `Cc1c(-c2cc3nc(Nc4cccc(S(C)(=O)=O)c4)ncc3c(N)c2F)cnc2c1NCCO2` [Compound 2-14, 6-fluoro-7-(8-methyl-2,3-dihydro-1H-pyrido[2,3-b][1,4]oxazin-7-yl)-N~2~- [3-(methylsulfonyl)phenyl] quinazoline-2,5-diamine] was 0.082 nM. `CC(=O)Nc1ccc(Nc2ncc3c(N)c(F)c(-c4cnc5c(c4C)NCCO5)cc3n2)cc1` [Compound 2-15] registered an IC50 of 0.0731 nM. The value for `Cc1c(-c2cc3nc(Nc4ccc(NS(C)(=O)=O)cc4)ncc3c(N)c2F)cnc2c1NCCO2` [Compound 2-16, N-(4-{[5-amino-6-fluoro-7-(8-methyl-2,3-dihydro-1H-pyrido[2,3-b][1,4]oxazin-7-yl)quinazolin-2-yl]amino}phenyl)methane-sulfonamide] was 0.0932 nM; that for `Cc1c(-c2cc3nc(Nc4ccc(S(C)(=O)=O)cc4)ncc3c(N)c2F)cnc2c1NCCO2` [Compound 2-17, 6-fluoro-7-(8-methyl-2,3-dihydro-1H-pyrido[2,3-b][1,4]oxazin-7-yl)-N~2~- [4-(methylsulfonyl)phenyl] quinazoline-2,5-diamine] was 0.0851 nM. The value for `Cc1c(-c2cc3nc(Nc4ccc(C5(C#N)CC5)cc4)ncc3c(N)c2F)cnc2c1NCCO2` [Compound 2-18, 1-(4-{[5-amino-6-fluoro-7-(8-methyl-2,3-dihydro-1H-pyrido[2,3-b][1,4]oxazin-7-yl)quinazolin-2-yl]amino}phenyl)cyclo-propane-1-carbonitrile] was 0.382 nM; that for `Cc1c(-c2cc3nc(Nc4cncnc4)ncc3c(N)c2F)cnc2c1NCCO2` [Compound 2-19, 6-fluoro-7-(8-methyl-2,3-dihydro-1H-pyrido[2,3-b][1,4]oxazin-7-yl)-N~2~- (pyrimidin-5-yl)quinazoline-2,5-diamine] was 1.34 nM. The value for `COc1ccncc1Nc1ncc2c(N)c(F)c(-c3cnc4c(c3C)NCCO4)cc2n1` [Compound 2-20, 6-fluoro-N~2~-(4-methoxypyridin-3-yl)-7-(8-methyl-2,3-dihydro-1H-pyrido[2,3-b][1,4]oxazin-7-yl)quinazoline-2,5-diamine] was 76.1 nM; that for `COc1c(Nc2ncc3c(N)c(F)c(-c4cnc5c(c4C)NCCO5)cc3n2)ccc2c1CCNC(=O)C2` [Compound 2-21] was 487 nM.

As to `Cc1c(-c2cc3nc(Nc4ccccc4F)ncc3c(N)c2F)cnc2c1NCCO2` [Compound 2-22, 6-fluoro-N~2~-(2-fluorophenyl)-7-(8-methyl-2,3-dihydro-1H-pyrido[2,3-b][1,4]oxazin-7-yl)quinazoline-2,5-diamine], the IC50 stood at 0.687 nM. The value for `CNC(=O)c1ccc(Nc2ncc3c(N)c(F)c(-c4cnc5c(c4C)NCCO5)cc3n2)cc1` [Compound 2-23, 4-{[5-amino-6-fluoro-7-(8-methyl-2,3-dihydro-1H-pyrido[2,3-b][1,4]oxazin-7-yl)quinazolin-2-yl]amino}-N-methylbenzamide] was 0.0508 nM. With `Cc1c(-c2cc3nc(Nc4ccc(CS(C)(=O)=O)cc4)ncc3c(N)c2F)cnc2c1NCCO2` [Compound 2-24, 6-fluoro-7-(8-methyl-2,3-dihydro-1H-pyrido[2,3-b][1,4]oxazin-7-yl)-N˜2˜-{4-[(methylsulfonyl)methyl]phenyl}quinazoline-2,5-diamine], the 50% inhibitory concentration (IC50) was found to be 0.0508 nM. As to `Cc1c(-c2cc3nc(Nc4ccccc4)ncc3c(N)c2F)cnc2c1NCCO2` [Compound 2-25, 6-fluoro-7-(8-methyl-2,3-dihydro-1H-pyrido[2,3-b][1,4]oxazin-7-yl)-N~2~- phenylquinazoline-2,5-diamine], the IC50 amounted to 0.275 nM. This IC50 is about 5.4-fold higher than that of the compound before.

Turning to `Cc1c(-c2cc3nc(Nc4ccccc4C4CC4)ncc3c(N)c2F)cnc2c1NCCO2` [Compound 2-26, N~2~-(2-cyclopropylphenyl)-6-fluoro-7-(8-methyl-2,3-dihydro-1H-pyrido[2,3-b][1,4]oxazin-7-yl)quinazoline-2,5-diamine], the midpoint of inhibition, the IC50, lay at 11.5 nM. The value for `COc1ncccc1Nc1ncc2c(N)c(F)c(-c3cnc4c(c3C)NCCO4)cc2n1` [Compound 2-27, 6-fluoro-N~2~-(2-methoxypyridin-3-yl)-7-(8-methyl-2,3-dihydro-1H-pyrido[2,3-b][1,4]oxazin-7-yl)quinazoline-2,5-diamine] was 0.117 nM; that for `CC(=O)NCc1ccc(Nc2ncc3c(N)c(F)c(-c4cnc5c(c4C)NCCO5)cc3n2)cc1` [Compound 2-30, N-[(4-{[5-amino-6-fluoro-7-(8-methyl-2,3-dihydro-1H-pyrido[2,3-b][1,4]oxazin-7-yl)quinazolin-2-yl]amino}phenyl)methyl] acetamide] was 0.0811 nM; that for `Cc1c(-c2cc3nc(Nc4ccccc4Cl)ncc3c(N)c2F)cnc2c1NCCO2` [Compound 2-31, N~2~-(2-chlorophenyl)-6-fluoro-7-(8-methyl-2,3-dihydro-1H-pyrido[2,3-b][1,4]oxazin-7-yl)quinazoline-2,5-diamine] was 4.62 nM. The value for `Cc1ncccc1Nc1ncc2c(N)c(F)c(-c3cnc4c(c3C)NCCO4)cc2n1` [Compound 2-32, 6-fluoro-7-(8-methyl-2,3-dihydro-1H-pyrido[2,3-b][1,4]oxazin-7-yl)-N~2~- (2-methylpyridin-3-yl)quinazoline-2,5-diamine] was 0.669 nM; that for `Cc1c(-c2cc3nc(Nc4cccc(S(=O)(=O)NC(C)(C)C)c4)ncc3c(N)c2F)cnc2c1NCCO2` [Compound 2-33, 3-{[5-amino-6-fluoro-7-(8-methyl-2,3-dihydro-1H-pyrido[2,3-b][1,4]oxazin-7-yl)quinazolin-2-yl]amino}-N-tert-butylbenzene-1-sulfonamide] was 0.186 nM; that for `CNS(=O)(=O)c1cccc(Nc2ncc3c(N)c(F)c(-c4cnc5c(c4C)NCCO5)cc3n2)c1` [Compound 2-34] was 0.118 nM.

Turning to `COc1cc2c(cc1Nc1ncc3c(N)cc(-c4cnccc4C)cc3n1)CNCC2` [Compound 2-37, N^2-(6-methoxy-1,2,3,4-tetrahydroisoquinolin-7-yl)-7-(4-methylpyridin-3-yl)quinazoline-2,5-diamine], the IC50 amounted to 0.372 nM. Against the preceding compound, the IC50 is about 3.2-fold higher. The value for `COc1cc2c(cc1Nc1ncc3c(N)cc(-c4c(C)cccc4F)cc3n1)CN(C)CC2` [Compound 2-38, 7-(2-fluoro-6-methylphenyl)-N^2-(6-methoxy-2-methyl-1,2,3,4-tetrahydroisoquinolin-7-yl)quinazoline-2,5-diamine] was 35.1 nM.
